The results in this text go back to publication PMC4113814, “Bioactive Cembrane Derivatives from the Indian Ocean Soft Coral, Sinularia kavarattiensis” (Marine Drugs, 2014).

One experiment has as its system IL-10. Briefly: IL-10 release in supernatants of LPS-treated primary microglial cells (ELISA). The following applies: 72 h; for IL-10 release: LPS-treated; for IC50: Rattus norvegicus, inhibition of LPS-induced cytokine release, read-out: IL-10 IC50. The format is cell-based, Wistar rats. Here is the method: Primary microglial cell cultures were prepared from brains of newborn Wistar rats. Ethics approval for the experiments was granted by the EBIOTEC Review Board (Valter Lombardi, Iván Carrera and Lucía Fernández-Novoa; Project Identification Code: Sinularia Project October 2013; approved 30 October 2013). The neocortex of one-day-old postnatal rats was aseptically dissected out, and the meninges and blood vessels were carefully removed. Following cutting in a medium containing 20% horse serum, the suspension was filtered through a […] and transferred as a single cell suspension to culture dishes, using 5.0 mL of medium per dish. The cultures were incubated at 37 °C in an atmosphere containing 5% CO2. The culture medium consisted of Minimum Essential Medium Eagle, supplemented with L-glutamine, amino acids, vitamins, penicillin, gentamicin, sodium bicarbonate and 20% heat-inactivated horse serum. The medium was changed twice a week. After 1 week, the concentration of horse serum was reduced to 10%. After sixteen days in culture, cells were treated with 1 μg/mL of lipopolysaccharide (LPS). […] Positive controls were treated only with LPS, while negative controls were treated with complete medium. After 72 h of incubation, cells were counted, and 2.5 mL of the supernatants were collected from each well and frozen at −40 °C for cytokine analyses. All experiments were carried out twice.
The supernatants obtained from cell cultures were analyzed for TNF-α, IL-1β, IL-4, IL-6, IL-8, IL-10 and IL-18 using commercially available ELISA kits following the manufacturers’ instructions. All samples were assayed in duplicate, and equivocal results were repeated. The cytokine concentration was calculated from a standard curve of the corresponding recombinant cytokine.
The cytotoxicity of the compounds was measured by the colorimetric methyl thiazol tetrazolium (MTT) assay and scored as a percentage of the absorbance reduction of treated cultures versus untreated control cultures. Primary microglial cell cultures were seeded into 96-well microplates at 10^4 cells per well and allowed to grow for 24 h. […] The compounds were serially diluted in complete culture medium with two-fold dilutions (100, 50, 25, 12.5, 6.25, 3.12 and 1.56 μg/mL for in vitro cytotoxicity; 12.5, 6.25, 3.12, 1.56, 0.78 and 0.39 μg/mL for cytokine release). Different concentrations of the compounds were added to each well, and Tamoxifen was used as a positive control, with concentrations ranging from 50 to 1.56 μg/mL. Plates were incubated at 37 °C for 72 h under 5% CO2 atmosphere. Then, the 50 μL of MTT-PBS solution in culture medium were added to each well. The plates were further incubated for 4 h under the same conditions. The medium was then removed and replaced with 200 μL of DMSO to solubilize the MTT formazan product. The solutions were shaken for 20 min, and the absorbance was measured at 570 nm. […] Each value represents the mean of triplicate determinations. The IC50 values were calculated from the compound concentration-response curves.
(An ELISA detects its analyte on a solid surface through an enzyme-linked reagent.)

For experiment [1], the system named is CHIKV replicon. Briefly: microbe, parasite or virus in culture. The following applies: Chikungunya virus, 48 h, read-out: inhibition of the CHIKV replicon (Rluc marker levels).
Experiment [2] has as its system CHIKV replicon. The following applies: summary statement.
The test system of experiment [3] is BHK-CHIKV-NCT cells. The experiment in a line: Cytotoxicity assay by ATP quantitation (CellTiter GLO). The following applies: 100 μM, cell concentration lowered to 3000 cells/well.
In experiment [4] the test system is BHK-CHIKV-NCT cells. Briefly: Cell-IQ live cell imaging, cytotoxicity by cell classification (viable cells). The following applies: 100 μM, 48 h, 3000 cells/well.
The subject of a further experiment is primary microglial cells. The experiment in a line: Microglial morphology cell count (ramified vs amoeboid) in LPS-treated cultures. Type of experiment: cell-based, Wistar rats. The following applies: 2.5 μg/mL (7.2 μM) and 5.0 μg/mL (14.4 μM), 72 h. As to the method:
Primary microglial cell cultures were prepared from brains of newborn Wistar rats. Ethics approval for the experiments was granted by the EBIOTEC Review Board (Valter Lombardi, Iván Carrera and Lucía Fernández-Novoa; Project Identification Code: Sinularia Project October 2013; approved 30 October 2013). The neocortex of one-day-old postnatal rats was aseptically dissected out, and the meninges and blood vessels were carefully removed. Following cutting in a medium containing 20% horse serum, the suspension was filtered through a […] and transferred as a single cell suspension to culture dishes, using 5.0 mL of medium per dish. The cultures were incubated at 37 °C in an atmosphere containing 5% CO2. The culture medium consisted of Minimum Essential Medium Eagle, supplemented with L-glutamine, amino acids, vitamins, penicillin, gentamicin, sodium bicarbonate and 20% heat-inactivated horse serum. The medium was changed twice a week. After 1 week, the concentration of horse serum was reduced to 10%. After sixteen days in culture, cells were treated with 1 μg/mL of lipopolysaccharide (LPS). […] After 72 h of incubation, cells were counted, and 2.5 mL of the supernatants were collected from each well and frozen at −40 °C for cytokine analyses. […]

In the next experiment the test system is cytokine release. Briefly: Inhibition of cytokine release in primary microglial cells, whole cytokine panel (summary statements). Type of experiment: cell-based, Wistar rats. The following applies: Rattus norvegicus. As to the method:
Primary microglial cell cultures were prepared from brains of newborn Wistar rats. Ethics approval for the experiments was granted by the EBIOTEC Review Board (Valter Lombardi, Iván Carrera and Lucía Fernández-Novoa; Project Identification Code: Sinularia Project October 2013; approved 30 October 2013). The neocortex of one-day-old postnatal rats was aseptically dissected out, and the meninges and blood vessels were carefully removed. Following cutting in a medium containing 20% horse serum, the suspension was filtered through a […] and transferred as a single cell suspension to culture dishes, using 5.0 mL of medium per dish. […] After 72 h of incubation, cells were counted, and 2.5 mL of the supernatants were collected from each well and frozen at −40 °C for cytokine analyses. […]
The supernatants obtained from cell cultures were analyzed for TNF-α, IL-1β, IL-4, IL-6, IL-8, IL-10 and IL-18 using commercially available ELISA kits following the manufacturers’ instructions. […] The cytokine concentration was calculated from a standard curve of the corresponding recombinant cytokine.
The cytotoxicity of the compounds was measured by the colorimetric methyl thiazol tetrazolium (MTT) assay and scored as a percentage of the absorbance reduction of treated cultures versus untreated control cultures. […] The solutions were shaken for 20 min, and the absorbance was measured at 570 nm. […]

Structures are written as SMILES. ≈ marks a conversion by molar mass, not a printed value. Entries after “also recorded” stand apart in the source; their conditions may differ. Like-named read-outs stand apart in the source and are kept apart here. Bounds are passed on as bounds.

In general, IC50 refers to the midpoint of a concentration-inhibition curve. Usually inhibition stands for the relative decrease from the control value, in per cent. In the case of `C=C(C)[C@@H]1CC(=O)[C@H]2[C@H](C1)[C@@H]1C(=O)O[C@@H]3C[C@@]4(C)O[C@H]2C(=O)[C@@H]4[C@H]13` [Compound 6, ineleganolide], the IL-10 release stood at 8.5 ± 3.2 pg/mL with IL-10 (C1: 1.0 μg/mL), 7.8 ± 2.2 pg/mL with IL-10 (C2: 2.5 μg/mL) and 7.5 ± 2.1 pg/mL in the experiment on IL-10 (C3: 5.0 μg/mL). Also, in the experiment on IL-10, the IC50 is more than 12.5 µg/mL. Besides, the inhibition at 100 µM in the experiment on CHIKV replicon [1] is 0.5 to 63%.

With `C=C(C)[C@@H]1C/C=C2\C(=O)O[C@@H](C[C@]3(C)CC(=O)[C@H](CC(=O)C1)O3)[C@@H]2O` [Compound 1, 5-epi-sinuleptolide], the IL-10 release was determined as 7.6 ± 1.6 pg/mL with IL-10 (C1: 1.0 μg/mL), 8.2 ± 1.8 pg/mL in the experiment with IL-10 (C2: 2.5 μg/mL) and 8.7 ± 2.1 pg/mL in the experiment on IL-10 (C3: 5.0 μg/mL). In addition, the IC50 in the experiment with IL-10 was more than 12.5 µg/mL. Further, the “overall activity in the CHIKV replicon model” value in the experiment with CHIKV replicon [2] is on record as “moderate inhibition”. In addition, the inhibition at 100 µM with CHIKV replicon [1] was more than 60%. Moreover, the “reduction of ATP level” value in the experiment with BHK-CHIKV-NCT cells [3] is 39%. For the same compound, the “decrease in the amount of viable cells (living or dividing)” value with BHK-CHIKV-NCT cells [4] is on record as more than 80%.

With `C=C(C)[C@@H]1C/C=C2\C(=O)O[C@@H](C[C@]3(C)CC(=O)[C@@H](CC(=O)C1)O3)[C@@H]2O` [Compound 2, sinuleptolide], in the experiment on primary microglial cells, the “effect on ramified (RM) and amoeboid (AM) microglial cell density” value was “significant RM and AM mean differences; also recorded: significantly reduce the number of activated amoeboid cells”. For the same compound, the IL-10 release stood at 7.9 ± 3.4 pg/mL in the experiment with IL-10 (C1: 1.0 μg/mL), 17.4 ± 2.3 pg/mL in the experiment with IL-10 (C2: 2.5 μg/mL) and 18.5 ± 1.9 pg/mL in the experiment on IL-10 (C3: 5.0 μg/mL). In addition, the IC50 was 0.5 µg/mL (≈ 1.44 µM) in the experiment with IL-10; 1.4 to 8.3 µM in the experiment with cytokine release (converted from μg/mL, range over all cytokines); 0.5 to 2.9 µg/mL in the experiment with cytokine release (range over IL-1β, IL-6, IL-8, IL-18, TNF-α, IL-4, IL-10, read-out: IC50-values for the inhibition of cytokine release, range over cytokines). Also, the “overall activity in the CHIKV replicon model” value in the experiment on CHIKV replicon [2] was “moderate inhibition”. Moreover, the inhibition at 100 µM with CHIKV replicon [1] is more than 60%. Moreover, the “reduction of ATP level” value with BHK-CHIKV-NCT cells [3] is listed as 44%. Also, the “decrease in the amount of viable cells (living or dividing)” value with BHK-CHIKV-NCT cells [4] was more than 80%.

For the compound `C=C(C)C1CCC23OC2C(CC2(C)CC(=O)C(CC(=O)C1)O2)OC3=O` (centres unmarked) [Compound 3, scabrolide D], the IL-10 release in the experiment with IL-10 (C1: 1.0 μg/mL) worked out at 7.5 ± 1.4 pg/mL; in the experiment with IL-10 (C2: 2.5 μg/mL), 6.8 ± 1.5 pg/mL; with IL-10 (C3: 5.0 μg/mL), 6.9 ± 1.5 pg/mL. Besides, the half-maximal inhibitory concentration (IC50) with IL-10 was more than 12.5 µg/mL. In the experiment on CHIKV replicon [1], the inhibition at 100 µM amounted to 44%.
